Data set [1] has as its system human keratinocyte cells. As to the kind of experiment: Toxicity to keratinocytes in the proliferation assay. It counts as cell-based. The conditions noted are these: 10^-6 M; keratinocyte cells in vitro.
Data set [2] relates to human keratinocytes. Description: Inhibition of proliferation of cultured human keratinocytes (cell count by Coulter Counter). It counts as cell-based. The settings on record: for inhibition at 1 µM / inhibition at 0.1 µM / inhibition at 0.01 µM: Homo sapiens, Keratinocyte; for inhibition at 1 µM: 10^-6 M; for inhibition at 0.1 µM: 10^-7 M; for inhibition at 0.01 µM: 10^-8 M; for Percent Inhibition on Keratinocyte Proliferation: ^ 10^-10 M. As for the experimental part: Human neonatal foreskins were collected by circumcision and placed into tubes containing DMEM media. Upon arrival at the laboratory the foreskins were mechanically trimmed of excess dermis and treated with a solution of trypsin/EDTA (0.05%/0.02%) at 4° C. overnight. The epidermis was stripped from the dermis, agitated in buffered saline to remove basal keratinocytes and the stratum corneum buffer was removed. The separated cells were centrifuged, resuspended in media, counted and the cells were plated onto a plain plastic material layer.
The keratinocytes were plated at a density of approximately about 10^5 cells/cm^2 in 35 cm^2 dishes. The cells were grown in keratinocyte growth media (KGM-modified MCDB 153 containing […] by Clonetics of Boulder, Colo.) according to protocols originally developed by Boyce, S. T. and Ham, R. G., J. of Tissue Culture Meth. 9:83-93 (1985). The cells were grown for 5-10 days and changed every 2-3 days with keratinocyte growth media with 1.5 mM CaCl2 (hereinafter KGM/1.5 mM CaCl2) until cells reached a 75% confluency by visual observation. All the cultures were incubated in a humidified atmosphere of 5% CO2 at 37° C.
To establish keratinocyte cell cultures as antiproliferative assays, cells prepared as described in the foregoing were washed with PBS and removed from the culture surface with a solution of trypsin/EDTA (0.25%/0.03%). The removed cells were then centrifuged resuspended in the KGM/1.5 mM CaCl2 and counted. The cells were then distributed to 6 well plates at 100,000 cells per well as described in the foregoing. […] After 24-48 hours the cells were changed into KGM/1.5 mM CaCl2. Test compounds were added one to two days later and the cultures maintained for seven days. The media was changed every 2-3 days.
Solutions of the test compounds were prepared as follows: 1 milligram quantities were received in amber glass vials, and stored at -20° C. Sufficient 100% ethanol was added directly to vials to obtain a millimolar solution that was subsequently aliquoted into small amber vials, overlayed with argon gas and stored at -20° C. Each stock solution was thawed once, used and discarded. Aliquots from the stock solutions were diluted directly into medium and then serially diluted from micromolar to 10^-12 M concentrations. Dilutions from 10^-8 M to 10^-12 M had ethanol added for a final concentration of 0.1%. Stock solutions were used within one month. Control cultures were treated with 0.1% ethanol.
For each experiment every culture well received the same number of cells from the same culture source. At the termination of the experiment the number of cells per was determined by the following procedure. Wells were washed twice with PBS and then incubated for approximately 10-20 minutes at 37° C. with a trypsin/EDTA solution (0.25%/0.03%). PBS plus 0.1% […] was added and the cells were suspended. An aliquot of the cells was placed into isotonic buffered saline and counted on an electronic particle counter (e.g. Coulter Counter® device by Coulter Electronics of Hialeah, Fla.).
For statistical analysis, the mean was calculated for all wells in each treatment group. Standard error was determined by nonbiased analysis using a value for the number of wells in each group, preferably N=3.
Quantification of proliferation was done by enumerating the number of keratinocyte cells in each well using the Coulter Counter®. Results shown in Table 1 below show the percent reduction or inhibition of keratinocyte cells calculated for each of 4 concentrations of the compounds tested according to the formula: [formula]
Each compound was tested in triplicate. The control (ETOH), as noted above, was 0.1% ethanol.

For data set [3], the system named is cholesterol biosynthesis in HepG2 cells. As to the kind of experiment: Inhibition of cholesterol biosynthesis in HepG2 cells (3H2O incorporation into cholesterol). It counts as cell-based. The conditions noted are these: for IC50: Homo sapiens. As for the experimental part:
HepG2 cells are maintained in 175 cm^2 T flasks in Darlington Medium supplemented with 10% fetal bovine serum (FBS). Darlington Medium consists of 3 parts Minimal Essential Medium, 1 part Waymouth's MAB87/3 medium and 3×10^-8 M sodium selenite. This medium is supplemented with 100 U/ml penicillin, 100 ug/ml streptomycin and 2.5 ug/ml Fungizone. In order to establish optimal conditions for the whole cell cholesterol biosynthesis assay, preliminary experiments were performed. 0.25, 0.5, 0.75 or 1×10^6 cells were seeded into 6 well cluster plates in 2 ml of fully supplemented Darlington Medium. The serum supplemented medium was aspirated after 72 hours and replaced with serum free Darlington Medium with antibiotics. After 24, 48 or 72 hours serum free, the cells received either 0.5 or 1 mCi ^3 H2 O/ml medium. This medium was aspirated after 24 hours and the cells were washed twice with phosphate buffered saline. The cells were frozen overnight at -20° C. after which they were harvested from the wells with 1 ml of trypsin-EDTA. Extracted lipids were separated on an HPLC system; cholesterol peaks were collected and counted in a scintillation counter. Results are expressed as the dpm ^3 H2 O incorporated into cholesterol.
In the screening assay the cells received compounds at various concentrations concommitantly with ^3 H2 O. When ethanol was the vehicle, the final ethanol concentration was 0.5%, and control wells with that concentration of ethanol were used in each experiment. Results are expressed as the percent dpm ^3 H2 O incorporated into cholesterol in treated vs control wells. IC50 values are calculated using a linear regression analysis.

Data set [4] relates to cholesterol biosynthesis. The settings on record: U.S. Pat. No. 4,450,171, col. 1, lines 43-51; cited from earlier work.
Where [5] appears, read: 168 h, 7 days, N = 3, read-out: Percent Inhibition on Keratinocyte Proliferation.

Here are results for three compounds from US5075327A, “Antipsoriatic agents” (Hoffmann-La Roche Inc., priority 1988, dated 1991).

Read-outs that look alike come from different tables or passages of the source.

With `CC[C@H](C)C(=O)O[C@H]1CCC=C2C=CC[C@H](CC[C@@H]3C[C@@H](O)CC(=O)O3)[C@]21C` [Compound A, [4R-(4α,6β),6[1S-[1α,8β(S), 8aα]]]-6-[2-[1,2,6,7,8,8a-hexahydro-8a-methyl-8-(2-methyl-1-oxo-butoxy)-1-naphthalenyl]-ethyl]tetrahydro-4-hydroxy-2H-pyran-2-one], in data set [1], the “toxicity to the cells” value is listed as “without toxicity to the cells”. Further, in data set [2] (setting [5]), the inhibition at 1 µM turned out to be 17.1%, the inhibition at 0.1 µM is 10% and the inhibition at 0.01 µM was found to be 8.24%. In data set [2] (read-out: inhibition rate of proliferation of keratinocyte cells), the inhibition at 1 µM was around 20%. Further, the “Percent Inhibition on Keratinocyte Proliferation” value in data set [2] (7 days, N = 3) is 20.98%. For the same compound, in data set [3] (HepG2 cells, Tests I and II), the “cholesterol biosynthesis inhibition as compared to mevinolin” value is listed as “exhibited cholesterol biosynthesis inhibition”. The same compound gave an IC50 in data set [3] (HepG2, Test I) of 47 nM. Besides, inhibition in data set [3] (HepG2, Test II) was half-maximal at 3810 nM (IC50).

As for `CC(=O)O[C@H]1CCCC2=CCC[C@H](CCC=O)[C@]21C` [Compound B, [1S-(1α,8β,8aβ)]-8-(2-formylethyl)-8a-methyl-1,2,3,4,6,7,8,8a-octahydro-1-naphthalenol-acetate], in data set [2] (setting [5]), the inhibition at 1 µM stood at 19.5%, the inhibition at 0.1 µM was 31.4% and the inhibition at 0.01 µM is 22.9%. Also, the “Percent Inhibition on Keratinocyte Proliferation” value in data set [2] (7 days, N = 3) amounted to 4.52%. The “inhibition of cell proliferation relative to compound A” value in data set [2] (conclusion in words) is on record as “slightly greater rate than compound A”.

As to `CCC(C)C(=O)OC1CC(C)C=C2C=CC(C)C(CCC3CC(O)CC(=O)O3)C21` (centres unmarked) [mevinolin, reference compound], the “activity in inhibiting cholesterol biosynthesis among the natural mevinolin compounds” value in data set [4] was “most active member”. The IC50 in data set [3] (HepG2, Test I) turned out to be 20 nM; in data set [3] (HepG2, Test II), 640 nM.

As usually defined, the IC50 is the concentration that inhibits the measured activity by half. A low value points to greater potency.
